From ChEMBL document CHEMBL1148394, “Design, synthesis, and in vitro biological evaluation of small molecule inhibitors of estrogen receptor alpha coactivator binding” (J Med Chem, 2004) come the findings set out here.

In this test the target is Estrogen receptor (Homo sapiens, UniProt Q92731+P03372). The test is described as follows: Binding affinity towards estrogen receptor was determined. Format: protein assay.
In turn, `CC(C)CNC(=O)[C@]1(C)C[C@](C)(C(=O)NCC(C)C)C[C@](C)(C(=O)NCC(C)C)C1` registered a Ki greater than 1000 µM.
The figure for `CC(C)CC[C@H]1S[C@@H](CCC(C)C)S[C@@H](CCC(C)C)S1` is greater than 1000 µM; for `CCC(C)CNCCc1ccc2ccc(CCNCC(C)CC)cc2c1` (stereo not drawn) it is greater than 1000 µM.
`CC(C)CCc1nc(NCC(C)C)nc(N(CC(=O)O)C(C)C)n1` displayed a Ki of 410 µM.
Next, `CCCNc1nc(NCCC)nc(NCCC)n1`: 290 µM; `CCCCCCCNc1nc(NCCCCCCC)nc(NCCCCCCC)n1`: 290 µM; `c1ccc2cc(CNc3nc(NCc4ccc5ccccc5c4)nc(NCc4ccc5ccccc5c4)n3)ccc2c1`: 290 µM.
In the case of `c1ccc(CNc2nc(NCc3ccccc3)nc(NCc3ccccc3)n2)cc1`, the Ki is 240 µM.
The figure for `c1ccc(CCc2cc(NCc3ccccc3)nc(NCc3ccccc3)n2)cc1` is 49 µM; for `CC(C)CCc1nc(NCC(C)C)nc(NCC(C)C)n1` it is 650 µM; for `CC(C)CCNCCc1ccc2ccc(CCNCCC(C)C)cc2c1` it is greater than 1000 µM.
For the molecule `CC(C)CNc1nc(NCC(C)C)nc(NCC(C)C)n1`, the inhibitory constant (Ki) came to 590 µM.
In turn, `CC(C)CCc1nc(NCC(C)C)nc(N(CC(=O)O)CC(C)C)n1` displayed a Ki of 790 µM.

By Ki is commonly meant the equilibrium dissociation constant of an inhibitor or competing ligand from its target. A higher Ki goes with lower affinity.
